We go through 10 molecules from the OPERA property sets (Mansouri et al. 2018).

As usually defined, the logP is the decadic logarithm of the partition coefficient of the neutral form, usually between octanol and water.

The molecule `CCCN1C(=O)CC2CCC(C)C3CCC4(C)OOC23C1O4` (stereo not given) yielded a logP of 3.4. For `C[C@@H]1CC[C@H]2[C@@H](C)C(=O)O[C@@H]3O[C@@]4(C)CC[C@@H]1[C@]32OO4`, the logP amounted to 2.9.

`CC1CCC2CC(=O)N(C)C3OC4(C)CCC1C23OO4` (stereo not given): the logP amounted to 2.76. As for `CC1CCC2CC(=O)N(CC(=O)O)C3OC4(C)CCC1C23OO4` (stereo not given), the figure is 1.75. In turn, `CO[C@H]1O[C@@H]2O[C@@]3(C)CC[C@H]4[C@H](C)CC[C@@H]([C@H]1C)[C@@]24OO3` registered a logP of 3.53. As to `CC1CCC2CC(=O)N(Cc3ccc(Cl)cc3)C3OC4(C)CCC1C23OO4` (stereo not given), the logP was 4.32. As for `CCCCCN1C(=O)CC2CCC(C)C3CCC4(C)OOC23C1O4` (stereo not given), the logP stood at 4.24. Turning to `CC(C)CCN1C(=O)CC2CCC(C)C3CCC4(C)OOC23C1O4` (stereo not given), the lipophilicity (logP) was 4.16. Molecule `CC(C)CN1C(=O)CC2CCC(C)C3CCC4(C)OOC23C1O4` (stereo not given) yielded a logP of 3.66. In the case of `CC1CCC2CC(=O)N(CCCc3ccccc3)C3OC4(C)CCC1C23OO4` (stereo not given), the logP stood at 4.39.
